From patent US7410971B2, “1,2-di(cyclic)substituted benzene compounds” (Eisai R&D Management Co., Ltd., priority 2003, dated 2008)

Tested on: colon-infiltrating neutrophils (myeloperoxidase enzyme activity)
Experiment: Oxazolone-induced colon neutrophil infiltration model
Type: in vivo, Balb/c mice
Conditions: Mus musculus, po, 30 mg/kg orally 30 minutes prior to intrarectal oxazolone, colon myeloperoxidase activity 4 hours after, vs oxazolone control group, read-out: Inhibitory rate (%)
Protocol: Evaluation of Compounds in Oxazolone-Induced Colon Neutrophil Infiltration Model
<Sensitization with Oxazolone>
Five- to six-week-old male Balb/c mice (Charles River Japan) were shaven at the abdomen to an approximately 2 cm square area. A 100% ethanol solution containing 3% 4-ethoxymethylene-2-phenyl-2-oxazolin-5-one (hereinafter referred to as “oxazolone”; Sigma) was applied at 150 μl onto the abdomen of each mouse.
<Preparation of Emulsion Containing Oxazolone>
Distilled water (Otsuka Pharmaceutical) was added in an equivalent volume to 100% peanut oil (Kanto Kagaku) containing 1% oxazolone, and the components were vigorously mixed with a glass syringe (Top Co.), to prepare an emulsion containing 0.5% oxazolone.
<Induction with Oxazolone>
The mice were fasted on the 3rd day after oxazolone sensitization, and were injected with 100 μl of the emulsion containing 0.5% oxazolone prepared in the way described above intrarectally at a site approximately 3 cm from the anus under ether anesthesia on the 4th day.
<Colon-Infiltrating Neutrophil Assay>
Each compound was suspended or dissolved in an aqueous solution containing 0.5% methyl cellulose (Wako), and orally administered at 30 mg/kg 30 minutes prior to the intrarectal injection of oxazolone emulsion. Four hours after the intrarectal injection of oxazolone, mice were sacrificed by cervical dislocation, and colons were extirpated, dissected in the longitudinal direction, washed with physiological saline, and transferred to ice-cooled plastic centrifugation tubes. After adding 1 ml of 50 mM potassium phosphate buffer (hereinafter abbreviated as KPB) (pH 6.0) to the tube, and the tissue were homogenized with PHYSCOTRON (Microtec Nition Co., Ltd.), 2 ml of 50 mM KPB (pH 6.0) was added and the mixture was centrifuged at 3000 rpm, 4° C. for 10 minutes and the supernatant was removed. To the resultant precipitate was added 1 ml of 50 mM KPB (pH 6.0) containing 0.5% hexadecyltrimethyl-ammonium bromide (Sigma), and freeze-thawed 3 to 5 times using liquid nitrogen and hot water, centrifuged at 3000 rpm, 4° C. for 10 minutes to yield a supernatant. The myeloperoxidase enzyme activity in the supernatant was assayed in the following manner. Specifically, to 10 μl of the obtained supernatant was added 200 μl of 50 mM KPB (pH6.0) containing 0.017% o-dianisidine (Sigma) and 0.0005% hydrogen peroxide (Wako), incubated at 37° C., and the change in absorbance at 450 nm was continuously measured for 1 minute using an EL340 Automated Microplate Reader (BIO-TEK) in kinetic mode. The units were the rate of change in absorbance per minute (mO.D./min.). With regard to the effect of each compound, the inhibitory rate (%) with respect to the oxazolone control group, i.e. the oxazolone-injected/compound-free group, was shown in the table 3.

SMILES	inhibition in vivo at 30 mg/kg [%]
CCCCN1CCN(c2cc(C#N)ccc2[C@H]2CC[C@H](C(C)(C)C)CC2)CC1.Cl [Example 13, trans-4-(4-t-Butylcyclohexyl)-3-(4-butylpiperazin-1-yl)benzonitrile hydrochloride]	13
CCCCN1CCN(c2cc(C#N)ccc2[C@H]2CC[C@@H](C(C)(C)C)CC2)CC1.Cl [Example 12, cis-4-(4-t-Butylcyclohexyl)-3-(4-butylpiperazine-1-yl)benzonitrile hydrochloride]	34
